Source: patent publication US20240150293A1, “SPIROCYCLOHEXANE DERIVATIVES, PHARMACEUTICAL COMPOSITIONS CONTAINING THEM AND THEIR USES AS ANTI-APOPTOTIC INHIBITORS” (LES LABORATOIRES SERVIER, priority 2021, published 2024)

Legend:
[1] = target: Cy5-labelled Mcl1 (amino acids 171-321) C286S protein (UniProtKB Q07820) (Homo sapiens (Human), UniProt Q07820, C286S); experiment: Inhibition of Mcl-1 by the fluorescence quenching assay (Example A, Method B); type: binding
In short: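 Cy5-labelled Mcl1 171-321 C286S (1 nM) quenched by TQ5WS-labelled PUMA peptide (10, 20 or 400 nM); displacement raises fluorescence (Ex 620/Em 680 nm). Buffer 10 mM HEPES, 150 mM NaCl, 0.05% Tween 20, pH 7.4, 5% DMSO; 2 h at room temperature, 11-point curves, IC50 converted to Ki (cKi/eKi).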

[2] = test system: H929 multiple myeloma tumor line; experiment: In vitro cytotoxicity, MTT assay (Example B, Method A); type: cell-based; conditions: Homo sapiens, NCI-H929, 48 h, H929 cells, 48 hours exposure, read-out: C50
Method: The cytotoxicity studies were carried out on the H929 multiple myeloma tumor line.
The cells are distributed onto microplates and exposed to the test compounds for 48 hours. The cell viability is then quantified by a colorimetric assay, the Microculture Tetrazolium Assay (Carmichael et al, Cancer Res. 1987, 47, 939-942).
The results are expressed in C50 which means concentration corresponding to […] of effect/inhibition.

Sequence of Cy5-labelled Mcl1 (amino acids 171-321) C286S protein (Q07820 171-321 C286S): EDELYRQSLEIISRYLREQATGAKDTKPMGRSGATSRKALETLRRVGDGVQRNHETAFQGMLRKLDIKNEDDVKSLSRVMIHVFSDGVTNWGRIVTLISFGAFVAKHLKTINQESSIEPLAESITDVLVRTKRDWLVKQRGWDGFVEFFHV

| Compound | Ki [1] | IC50 [2] |
| --- | --- | --- |
| C[C@@H](CNc1ccncc1)C[C@H]1Cc2ccccc2[C@]12CC[C@@](Nc1cccc(Cl)c1)(C(=O)O)CC2 [Example 575, (1r,2′S,4S)-4-(3-chloroanilino)-2′-{(2R)-2-methyl-3-[(pyridin-4-yl)amino]propyl}-2′,3′-dihydrospiro[cyclohexane-1,1′-indene]-4-carboxylic acid] | 350 nM | 16200 nM |
| C[C@@H](COc1ccncc1C1CC1)C[C@H]1Cc2ccccc2[C@]12CC[C@@](Nc1cccc(Cl)c1)(C(=O)O)CC2 [Example 577, (1r,2′S,4S)-4-(3-chloroanilino)-2′-{(2R)-3-[(3-cyclopropylpyridin-4-yl)oxy]-2-methylpropyl}-2′,3′-dihydrospiro[cyclohexane-1,1′-indene]-4-carboxylic acid] | 10.4 nM | 1190 nM |
| C[C@@H](COc1ccncc1C(F)(F)F)C[C@H]1Cc2ccccc2[C@]12CC[C@@](Nc1cccc(Cl)c1)(C(=O)O)CC2 [Example 578, (1r,2′S,4S)-4-(3-chloroanilino)-2′-[(2R)-2-methyl-3-{[3-(trifluoromethyl)pyridin-4-yl]oxy}propyl]-2′,3′-dihydrospiro[cyclohexane-1,1′-indene]-4-carboxylic acid] | 7.84 nM | 471 nM |
| Cc1cncc(C)c1OC[C@H](C)C[C@H]1Cc2ccccc2[C@]12CC[C@@](Nc1cccc(Cl)c1)(C(=O)O)CC2 [Example 584, (1r,2′S,4S)-4-(3-chloroanilino)-2′-{(2R)-3-[(3,5-dimethylpyridin-4-yl)oxy]-2-methylpropyl}-2′,3′-dihydrospiro[cyclohexane-1,1′-indene]-4-carboxylic acid] | 7.03 nM | 1760 nM |
| CC(C)c1cnccc1OC[C@H](C)C[C@H]1Cc2ccccc2[C@]12CC[C@@](Nc1cccc(Cl)c1)(C(=O)O)CC2 [Example 587, (1r,2′S,4S)-4-(3-chloroanilino)-2′-[(2R)-2-methyl-3-{[3-(propan-2-yl)pyridin-4-yl]oxy}propyl]-2′,3′-dihydrospiro[cyclohexane-1,1′-indene]-4-carboxylic acid] | 3.93 nM | 679 nM |
| C[C@@H](COc1ncnc2c1[C@H](C)CC2)CC1Cc2ccccc2[C@]12CC[C@@](Nc1cccc(Cl)c1)(C(=O)O)CC2 (stereo partly drawn) [Example 597, (1r,4R)-4-(3-chloroanilino)-2′-[(2R)-2-methyl-3-{[(5R)-5-methyl-6,7-dihydro-5H-cyclopenta[d]pyrimidin-4-yl]oxy}propyl]-2′,3′-dihydrospiro[cyclohexane-1,1′-indene]-4-carboxylic acid] | 5.36 nM | 1310 nM |
| C[C@@H](COc1ccnc2c1CCC2)C[C@@H]1Cc2ccccc2[C@]12CC[C@@](Nc1cccc(Cl)c1)(C(=O)O)CC2 [Example 598, (1r,2′R,4R)-4-(3-chloroanilino)-2′-{(2R)-3-[(6,7-dihydro-5H-cyclopenta[b]pyridin-4-yl)oxy]-2-methylpropyl}-2′,3′-dihydrospiro[cyclohexane-1,1′-indene]-4-carboxylic acid] | 4.29 nM | 590 nM |
| C[C@@H](COc1ccnc2c1CCC2F)C[C@H]1Cc2ccccc2[C@]12CC[C@@](Nc1cccc(Cl)c1)(C(=O)O)CC2 (stereo partly drawn) [Example 603, (1r,2′S,4S)-4-(3-chloroanilino)-2′-{(2R)-3-[(7-fluoro-6,7-dihydro-5H-cyclopenta[b]pyridin-4-yl)oxy]-2-methylpropyl}-2′,3′-dihydrospiro[cyclohexane-1,1′-indene]-4-carboxylic acid] | 8 nM | 1110 nM |
| CC1CC(O)c2nccc(OC[C@H](C)C[C@H]3Cc4ccccc4[C@]34CC[C@@](Nc3cccc(Cl)c3)(C(=O)O)CC4)c21 (stereo partly drawn) [Example 610, (1r,2′S,4S)-4-(3-chloroanilino)-2′-{(2R)-3-[(7-hydroxy-5-methyl-6,7-dihydro-5H-cyclopenta[b]pyridin-4-yl)oxy]-2-methylpropyl}-2′,3′-dihydrospiro[cyclohexane-1,1′-indene]-4-carboxylic acid] | 0.767 nM | 423 nM |
| C[C@@H](COc1ccnc2c1CC(C)(C)C2)C[C@H]1Cc2ccccc2[C@]12CC[C@@](Nc1cccc(Cl)c1)(C(=O)O)CC2 [Example 611, (1r,2′S,4S)-4-(3-chloroanilino)-2′-{(2R)-3-[(6,6-dimethyl-6,7-dihydro-5H-cyclopenta[b]pyridin-4-yl)oxy]-2-methylpropyl}-2′,3′-dihydrospiro[cyclohexane-1,1′-indene]-4-carboxylic acid] | 12.3 nM | 1670 nM |

More lines, main results first:

| Ki [1] | Compound | IC50 [2] |
| --- | --- | --- |
| 29.9 nM | CCCC#C[C@H](COc1ccnc2ccsc12)CC1=Cc2ccccc2[C@]12CC[C@@](Nc1cccc(Cl)c1)(C(=O)O)CC2 [Example 564, (1r,4R)-4-(3-chloroanilino)-2′-[(2R)-2-{[(thieno[3,2-b]pyridin-7-yl)oxy]methyl}hept-3-yn-1-yl]spiro[cyclohexane-1,1′-indene]-4-carboxylic acid] | 16100 nM |
| 10.8 nM | CCCC#C[C@@H](COc1ccnc2ccsc12)CC1=Cc2ccccc2[C@]12CC[C@@](Nc1cccc(Cl)c1)(C(=O)O)CC2 [Example 565, (1r,4S)-4-(3-chloroanilino)-2′-[(2S)-2-{[(thieno[3,2-b]pyridin-7-yl)oxy]methyl}hept-3-yn-1-yl]spiro[cyclohexane-1,1′-indene]-4-carboxylic acid] | 2390 nM |
| 4.34 nM | C[C@@H]1CCCc2nccc(OCC(CC3=Cc4ccccc4[C@]34CC[C@@](Nc3cccc(Cl)c3)(C(=O)O)CC4)c3ccccn3)c21 (stereo partly drawn) [Example 566, (1r,4R)-4-(3-chloroanilino)-2′-[3-{[(5R)-5-methyl-5,6,7,8-tetrahydroquinolin-4-yl]oxy}-2-(pyridin-2-yl)propyl]spiro[cyclohexane-1,1′-indene]-4-carboxylic acid] | 721 nM |
| 2.62 nM | Cc1c(OC[C@H](C)C[C@H]2Cc3ccccc3[C@]23CC[C@@](Nc2cccc(Cl)c2)(C(=O)O)CC3)ccnc1CO [Example 586, (1r,2′S,4S)-4-(3-chloroanilino)-2′-[(2R)-3-{[2-(hydroxymethyl)-3-methylpyridin-4-yl]oxy}-2-methylpropyl]-2′,3′-dihydrospiro[cyclohexane-1,1′-indene]-4-carboxylic acid] | 1610 nM |
| 8.39 nM | C[C@@H](COc1ccnc2ccsc12)CC1=Cc2ccccc2[C@]12CC[C@@](Nc1cccc(Cl)c1)(C(=O)O)CC2 [Example 589, (1r,4R)-4-(3-chloroanilino)-2′-{(2R)-2-methyl-3-[(thieno[3,2-b]pyridin-7-yl)oxy]propyl}spiro[cyclohexane-1,1′-indene]-4-carboxylic acid] | 694 nM |
| 2.72 nM | C[C@@H](COc1ccnc2ccsc12)C[C@H]1Cc2ccccc2[C@]12CC[C@@](Nc1cccc(Cl)c1)(C(=O)O)CC2 [Example 591, (1r,2′S,4S)-4-(3-chloroanilino)-2′-{(2R)-2-methyl-3-[(thieno[3,2-b]pyridin-7-yl)oxy]propyl}-2′,3′-dihydrospiro[cyclohexane-1,1′-indene]-4-carboxylic acid] | 438 nM |
| 1.05 nM | C[C@@H](COc1ccnc2c1CCC2)C[C@H]1Cc2ccccc2[C@]12CC[C@@](Nc1cccc(Cl)c1)(C(=O)O)CC2 [Example 599, (1r,2′S,4S)-4-(3-chloroanilino)-2′-{(2R)-3-[(6,7-dihydro-5H-cyclopenta[b]pyridin-4-yl)oxy]-2-methylpropyl}-2′,3′-dihydrospiro[cyclohexane-1,1′-indene]-4-carboxylic acid] | 237 nM |
